# Test results reported in patent US9062067B2, “Process for preparation of darunavir and darunavir ethanolate of fine particle size” (Lupin Limited, priority 2009, dated 2015).
# Columns and labels:
# [1] = Particle size distribution (Malvern mastersizer); format: physicochemical; conditions: after jet mill micronization, Example 4
# Text: The particle size of the darunavir ethanolate obtained by the process of present invention can be determined by any method known in the art such as laser diffraction, sieve analysis, microscope observation, sedimentation etc. Malvern mastersizer is an instrument employed for particle size determination in the present invention.
# Bulk and tapped density = format: physicochemical; conditions: after jet mill micronization, Example 4
smiles,measurement,setting,value
"CC(C)CN(C[C@@H](O)[C@H](Cc1ccccc1)NC(=O)O[C@H]1CO[C@H]2OCC[C@H]21)S(=O)(=O)c1ccc(N)cc1 [darunavir ethanolate, Darunavir ethanolate]",Particle size distribution d0.1,[1],2 μm
same,Particle size distribution d0.5,[1],18 μm
same,Particle size distribution d0.9,[1],97 μm
same,Bulk density,Bulk and tapped density,0.42 g/mL
same,Tapped density,Bulk and tapped density,0.72 g/mL
